Experimental data taken from US20030162834A1, “Natural physiologically active material effective on fish diseases and fish food containing the material” (priority 1998, published 2003).

Legend:
[1] = tested on: Heterobothrium okamotoi larvae; test: Immersion of Heterobothrium okamotoi larvae in seawater with dissolved octanoic acid; format: cell-based; details: seawater in which octanoic acid was dissolved
Method: Larvae of parasites Heterobothrium okamotoi were immersed in seawater in which octanoic acid was dissolved. […] Octanoic acid is an edible natural material contained in palm oil, butter and nuts, and has been used in a drug applied to dyspeptics, for example.

[2] = tested on: Cryptocaryon irritans; test: Trial 4: oral octanoic acid, Cryptocaryon irritans challenge trial on red sea bream; format: in vivo; details: 5 g octanoic acid per 1 kg pellets
Method: Fish tested: Red sea bream weighing approximately 9.8 g in average.
Trial groups: Two groups, i.e., an octanoic-acid added group in which fish were fed diets added with octanoic acid, and a control group in which fish were fed diets not added with octanoic acid. The feeding rate was 3% of fish weight/day for each group.
Trial diets: The diets added with octanoic acid were prepared by spraying 5 g of octanoic acid to 1 kg of commercially available pellets for red sea bream. The control group fish were fed the commercially available pellets for red sea bream.
Challenge trial: Each 30 pieces of fish from among a shoal of fish, in which no diseases such as Cryptocaryon irritans infection were found, were put in a 100-liter water tank, and were fed the respective trial diets. After 5 days, approximately 2000 individuals of ([…] theronts) of Cryptocaryon irritans were put in each water tank to infect the fish while water flow was stopped for 1 hour. Then, bleeding was continued for 15 days. During the trial period, the water temperature was in the range of 22.5-23.2 degrees centigrade and the water was exchanged at 20 cycles/day.
Evaluation was made by sampling 5 pieces of fish from each group after 3 days from the start of the challenge, comparing the number of parasites attaching to the gill and the body surface of each infected fish, and comparing mortality of the fish during the trial period between the respective groups.

[3] = tested on: Heterobothrium okamotoi; test: Trial 6: vitamin C enhancement trial on tiger puffer; format: in vivo; details: 5 g octanoic acid per 1 kg pellets (with or without 200 mg vitamin C per kg), oral, 15 days after first challenge
Source text: Fish tested: Tiger puffer weighing approximately 50.0 g in average.
Trial groups: Three groups, i.e., an octanoic-acid added group in which fish were fed diets added with octanoic acid, an octanoic-acid added/vitamin-C enhanced group in which fish were fed diets added with both octanoic acid and vitamin C, and a control group in which fish were fed diets not added with octanoic acid. The feeding rate was 2% of fish weight/day for each group.
Trial diets: The diets added with octanoic acid were prepared by spraying 5 g of octanoic acid to 1 kg of commercially available pellets for tiger puffer. The diets added with both octanoic acid and vitamin C were prepared by spraying 200 mg of vitamin C, dissolved in water, to 1 kg of the above diets added with octanoic acid. The control group fish were fed the commercially available pellets for tiger puffer.
Challenge trial: Each 5 pieces of fish from among a shoal of fish, in which no diseases such as parasitic infections were found, were put in a 100-liter water tank, and were fed the respective trial diets. After 7 days, approximately 750 individuals of oncomiracidia of Heterobothrium okamotoi were put into each water tank to infect the fish while water flow was stopped for 1 hour. The infection procedure was repeated every other day 5 times in total under the same condition. […]

[4] = tested on: Cryptocaryon irritans; test: Trial 7: vitamin C enhancement trial on red sea bream; format: in vivo; details: oral
Source text: (§1) Fish tested: Red sea bream weighing approximately 15.8 g in average.
Trial groups: Three groups, i.e., an octanoic-acid added group in which fish were fed diets added with octanoic acid, an octanoic-acid added/vitamin-C enhanced group in which fish were fed diets added with both octanoic acid and vitamin C, and a control group in which fish were fed diets not added with octanoic acid. The feeding rate was 3% of fish weight/day for each group.
Trial diets: The diets added with octanoic acid were prepared by spraying 2.5 g of octanoic acid to 1 kg of commercially available pellets for red sea bream. The diets added with both octanoic acid and vitamin C were prepared by spraying 200 mg of vitamin C, dissolved in water, to 1 kg of the above diets added with octanoic acid. The control group fish were fed the commercially available pellets for red sea bream.
Challenge trial: Each 30 pieces of fish from among a shoal of fish, in which no diseases such as Cryptocaryon irritans infection were found, were put in a 100-liter water tank, and were fed the respective trial diets. After 5 days, approximately 2000 individuals of theronts of Cryptocaryon irritans were put into each water tank to infect the fish while water flow was stopped for 1 hour. Then, bleeding was continued for 60 days. During the trial period, the water temperature was 24+−1 degrees centigrade and the water was exchanged at 20 cycles/day.
Evaluation was made by sampling 5 pieces of fish from each group after 18 and 31 days from the start of the challenge, comparing the number of the parasites attaching to the gill of each fish, and comparing mortality of the fish during the trial period between the respective groups.

[5] = tested on: Cryptocaryon irritans; test: Trial 8: octanoic acid versus its monoglyceride and triglyceride, oral, red sea bream; format: in vivo; details: diet amount equal to 17.5 mM octanoic acid residues (2.5 g acid, 3.8 g monoglyceride, 2.7 g triglyceride per kg)
Source text: as §1
Trial groups: Four groups, i.e., an octanoic-acid added group in which fish were fed diets added with octanoic acid, a monoglyceride added group in which fish were fed diets added with monoglyceride of octanoic acid, a triglyceride added group in which fish were fed diets added with triglyceride of octanoic acid, and a control group in which fish were fed diets added with neither octanoic acid nor glycerides. The feeding rate was 3% of fish weight/day for each group.
Trial diets: The diets added with octanoic acid were prepared by spraying 2.5 g (17.5 mM with respect to the diet weight) of octanoic acid to 1 kg of commercially available pellets for red sea bream. […]. Specifically, the diets added with monoglyceride and triglyceride were prepared respectively by spraying 3.8 g of monoglyceride and 2.7 g of triglyceride to 1 kg of the commercially available pellets for red sea bream. The control group fish were fed the commercially available pellets for red sea bream.
Challenge trial: Each 10 pieces of fish from among a shoal of fish, in which no diseases such as Cryptocaryon irritans infection were found, were put in a 100-liter water tank, and were fed the respective trial diets. After 5 days, approximately 2000 individuals of theronts of Cryptocaryon irritans were put into each water tank to infect the fish while water flow was stopped for 1 hour. Then, bleeding was continued for 31 days while feeding the respective trial diets. During the trial period, the water temperature was 24+−1 degrees centigrade and the water was exchanged at 20 cycles/day.
Evaluation was made by sampling 5 pieces of fish from each group after 18 and 31 days from the start of the challenge, and comparing the number of the parasites attaching to the gill of each fish.

[6] = Trial 9: tolerance of tiger puffer to immersion in seawater containing octanoic acid; format: in vivo
Source text: Each group, i.e., 130 g of tiger puffer, was immersed in 2-liter seawater containing octanoic acid at 100 ppm, 200 ppm and 400 ppm, followed by observation.

CCCCCCCC(=O)O [octanoic acid]
effect on larvae [1]: died due to the occurrence of structural damages (such as vacuolation) | parasites on gill and body surface after 3 days from the challenge [2]: no parasites were found | parasites at the end of the trial ([2]; 15 days): no parasites were found | fish mortality during the trial ([2]; 15 days, control all dead at the 8-th day): no fish died | number of parasites attaching to the gill [3]: apparently fewer | number of parasites attaching to the gill after 18 and 31 days ([4]; 2.5 g octanoic acid per 1 kg pellets (with or without 200 mg vitamin C per kg)): apparently fewer | fish mortality during the trial ([4]; 2.5 g octanoic acid per 1 kg pellets (with or without 200 mg vitamin C per kg), 60 days): all dead | time at which the fish began dying, versus control ([4]; 2.5 g octanoic acid per 1 kg pellets): later | number of parasites attaching to the gill after 18 and 31 days, versus control [5]: apparently fewer | condition when returned to seawater ([6]; after immersion at 100 ppm): no abnormality | time to restore to a normal condition after return to seawater ([6]; after immersion at 200 ppm): approximately 30 minutes | time to restore to a normal condition after return to seawater ([6]; after immersion at 400 ppm, almost dying condition): approximately 60 minutes | observation of fish after 60 minutes ([6]; immersion, 100 ppm octanoic acid in seawater): a swimming activity of the fish was slightly lowered, but no abnormality was found in the fish | time at which fish began to lie down ([6]; immersion, 200 ppm): 60 min | time until swimming activity was apparently lowered ([6]; immersion, 200 ppm): 30 min | time at which fish became almost dying ([6]; immersion, 400 ppm): 9 min | time at which fish began to lie down ([6]; immersion, 400 ppm): 3 min | observation of fish returned to seawater ([6]; observed for 7 days after immersion): no abnormality was found
